The record followed here is patent US11066393B2, “Indolin-2-one derivatives” (Hoffmann-La Roche Inc., priority 2015, dated 2021).

For orientation: IC50 means the midpoint of a concentration-inhibition curve.

For experiment [1], the system named is L-687,414-induced hyperlocomotion. Briefly: Reduction of L-687,414-induced hyperlocomotion. To be noted: mice, dose 30 mg/kg ip, 15 min before s.c. 50 mg/kg L-687,414. Type of experiment: in vivo, mouse. From the text: The authors described that hyperlocomotion induced by L-687,414 was inhibited by a series of known antipsychotic drugs. […] These findings predict antipsychotic activity for the present compounds, making them useful for the treatment of positive (psychosis) and negative symptoms of schizophrenia, substance abuse, alcohol and drug addiction, obsessive-compulsive disorders, cognitive impairment, bipolar disorders, mood disorders, major depression, resistant depression, anxiety disorders, Alzheimer's disease, autism, Parkinson's disease, chronic pain, borderline personality disorder, sleep disturbances, chronic fatigue syndrome, stiffness, antiinflammatory effects in arthritis and balance problems, epilepsy and neurodevelopmental disorders with co-morbid epilepsy.
The described compounds of formula I reduce L-687,414-induced hyperlocomotion. This was assessed by using a computerized Digiscan 16 Animal Activity Monitoring System (Omnitech Electronics, Columbus, Ohio) to quantify locomotor activity. Animals were kept under a 12 h light/dark cycle and experiments were performed during the light period. Each activity monitoring chamber consisted of a Plexiglas box (41×41×28 cm; W×L×H) with sawdust bedding on the floor surrounded by invisible horizontal and vertical infrared sensor beams. The test boxes were divided by a Plexiglas cross providing each mouse with 20×20 cm of moving space. Cages were connected to a Digiscan Analyzer linked to a computer that constantly collected the beam status information. Records of photocell beam interruptions for individual animals were taken every 5 min over the duration of the experimental session and the sum of the first 6 periods was used as the final parameter. At least 8 mice were used in each treatment group. Compounds were administered i.p. 15 min before a s.c. injection of 50 mg/kg of L-687,414. Mice were then transferred from their home cage to the recording chambers for a 15-min habituation phase allowing free exploration of the new environment. Horizontal activity was then recorded for a 30-min time period. The % inhibition of L-687,414-induced hyperlocomotion was calculated according to the equation: ((Veh+L-687,414 horizontal activity−drug+L-687,414 horizontal activity)/Veh+L-687,414 horizontal activity)×100
ID50 values, defined as doses of each compound producing 50% inhibition of L-687,414-induced hyperlocomotion, were calculated by linear regression analysis of a dose-response data using an Excel-based computer-fitting program. As data was not presupposed to be normally distributed, groups treated with test compounds were statistically compared with the control (vehicle-treated) group using one-tailed Mann Whitney U tests. In statistics, the Mann-Whitney U test (also called the Mann-Whitney-Wilcoxon (MWW) or Wilcoxon rank-sum test) is a non-parametric statistical hypothesis test for assessing whether one of two samples of independent observations tends to have larger values than the other. It is one of the most well-known non-parametric significance tests. […] P values given in table 1 are one-tailed since only decreases in locomotion were expected and tested for (Mann, H. B., Whitney, D. R. (1947), “On a Test of Whether one of Two Random Variables is Stochastically Larger than the Other”, Annals of Mathematical Statistics, 18 (1), 50-60).

Experiment [2] has as its target T1, mouse ENT-1 transporter (Mus musculus, UniProt Q9JIM1).
T1 construct: expressed in transfected cells
T1 sequence (Q9JIM1 1-460): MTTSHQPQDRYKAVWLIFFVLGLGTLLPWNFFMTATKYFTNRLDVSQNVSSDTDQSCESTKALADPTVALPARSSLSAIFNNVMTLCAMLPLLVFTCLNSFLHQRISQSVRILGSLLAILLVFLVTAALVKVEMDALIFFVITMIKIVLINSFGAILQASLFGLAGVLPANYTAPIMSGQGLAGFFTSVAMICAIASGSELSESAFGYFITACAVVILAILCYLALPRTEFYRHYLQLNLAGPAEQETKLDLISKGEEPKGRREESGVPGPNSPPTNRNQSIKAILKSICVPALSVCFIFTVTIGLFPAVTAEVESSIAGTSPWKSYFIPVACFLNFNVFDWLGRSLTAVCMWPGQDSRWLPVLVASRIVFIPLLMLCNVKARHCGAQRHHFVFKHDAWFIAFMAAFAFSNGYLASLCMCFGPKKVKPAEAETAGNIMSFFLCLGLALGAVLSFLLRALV
Kind of experiment: Adenosine transport activity (ENT1, [3H]-adenosine uptake). Type of experiment: cell-based. To be noted: stable cells expressing mouse ENT-1; [2,8-3H]-adenosine 6 nM, 20 min. How it is done: To measure adenosine transport activity of ENT-1 mammalian cells, stable cells expressing the mouse ENT-1 transporter were plated on day 1 in 96-well culture plates at the density of 60,000 cells/well, in complete DMEM/F12 medium supplemented with glutamax, 10% FBS and 10 μg/ml puromycin. On day 2, the medium was aspirated and the cells were washed twice with uptake buffer (10 mM Hepes-Tris, pH 7.4 containing 150 mM NaCl, 1 mM CaCl2, 2.5 mM KCl, 2.5 mM MgSO4, 10 mM D-glucose) (UB). For inhibition experiments, cells were then incubated at RT with various concentrations of compounds with 1% DMSO final. Non-specific uptake was defined in the presence of 10 μM S-(4-Nitrobenzyl)-6-thioinosine (NBTI, Sigma Cat #N2255).
A solution containing [2,8-^3H]-adenosine 6 nM (40 Ci/mmol, American Radiolabeled chemicals Inc, Cat #ART 0287A) was then immediately added to the wells. The plates were then incubated for 20 min with gentle shaking and the reaction was stopped by aspiration of the mixture and washing (three times) with ice-cold UB. The cells were lysed by the addition of scintillation liquid, shaken 3 hours and the radioactivity in the cells was estimated using a microplates scintillation counter (TopCount NXT, Packard).

As for `CNC(=O)c1cncc(N2C(=O)C(C)(C)c3ccc(-c4cnc(C)nc4)cc32)n1` [Example 2, 6-(3,3-Dimethyl-6-(2-methylpyrimidin-5-yl)-2-oxoindolin-1-yl)-N-methylpyrazine-2-carboxamide], in experiment [1], the “Inhibition, ip [%] of L-687,414-induced hyperlocomotion” value (“Inhibition, ip [%]” below) came out at 97.5%. Inhibition in experiment [2] was half-maximal at 28 nM (IC50).
As to `COCCNC(=O)c1cncc(N2C(=O)C(C)(C)c3ccc(-c4cnc(C)nc4)cc32)n1` [Example 7, 6-(3,3-Dimethyl-6-(2-methylpyrimidin-5-yl)-2-oxoindolin-1-yl)-N-(2-methoxyethyl)pyrazine-2-carboxamide], the “Inhibition, ip [%]” value in experiment [1] is given as 88.1%. For the same molecule, in experiment [2], the IC50 was 88.4 nM.
Consider `Cc1ncc(-c2ccc3c(c2)N(c2cnc(C(=O)N(C)C)cn2)C(=O)C3(C)C)cn1` [Example 11, 5-[3,3-Dimethyl-6-(2-methylpyrimidin-5-yl)-2-oxoindol-1-yl]-dimethylpyrazine-2-carboxamide], for which the “Inhibition, ip [%]” value in experiment [1] stood at 98.4%. The IC50 in experiment [2] worked out at 123 nM.
As for `CNC(=O)c1ccnc(N2C(=O)C(C)(C)c3ccc(-c4cnc(C)nc4)cc32)n1` [Example 16, 2-(3,3-Dimethyl-6-(2-methylpyrimidin-5-yl)-2-oxoindolin-1-yl)-N-methylpyrimidine-4-carboxamide], the “Inhibition, ip [%]” value in experiment [1] was determined as 94.6%. The molecule further yielded a concentration for half-maximal inhibition (IC50) in experiment [2] of 241 nM.
In the same order, the values of `CNC(=O)c1cccc(N2C(=O)C(C)(C)c3ccc(-c4cnc(C)nc4)cc32)n1` [Example 22, 6-(3,3-Dimethyl-6-(2-methylpyrimidin-5-yl)-2-oxoindolin-1-yl)-N-methylpicolinamide] are 95.6% and 8.5 nM.
Take `Cc1ncc(-c2ccc3c(c2)N(c2cccc(C(=O)NC4CC4)n2)C(=O)C3(C)C)cn1` [Example 24, N-Cyclopropyl-6-(3,3-dimethyl-6-(2-methylpyrimidin-5-yl)-2-oxoindolin-1-yl)picolinamide]: the “Inhibition, ip [%]” value in experiment [1] was 99.1%. The same molecule registered an IC50 in experiment [2] of 45.8 nM.
As for `Cc1ncc(-c2ccc3c(c2)N(c2ccc(C(=O)N(C)C)cn2)C(=O)C3(C)C)cn1` [Example 29, 6-(3,3-Dimethyl-6-(2-methylpyrimidin-5-yl)-2-oxoindolin-1-yl)-N,N-dimethylnicotinamide], in experiment [1], the “Inhibition, ip [%]” value is recorded as 93%. The molecule also showed a 50% inhibitory concentration (IC50) in experiment [2] of 585 nM.
Take `Cc1ncc(-c2ccc3c(c2)N(c2ccc4c(c2)C(=O)N(C)C4)C(=O)C3(C)C)cn1` [Example 37, 3,3-Dimethyl-1-(2-methyl-3-oxoisoindolin-5-yl)-6-(2-methylpyrimidin-5-yl)indolin-2-one]: the IC50 in experiment [2] worked out at 668 nM.
Consider `Cc1ncc(-c2ccc3c(c2)N(c2ccc4c(n2)C(=O)NC4(C)C)C(=O)C3(C)C)cn1` [Example 38, 2-(3,3-Dimethyl-6-(2-methylpyrimidin-5-yl)-2-oxoindolin-1-yl)-5,5-dimethyl-5H-pyrrolo[3,4-b]pyridin-7(6H)-one], for which inhibition in experiment [2] was half-maximal at 239 nM (IC50).
Turning to `Cc1ncc(-c2ccc3c(c2)N(c2cncc(C(=O)NC4CC4)n2)C(=O)C3(C)C)cn1` [Example 39, N-Cyclopropyl-6-(3,3-dimethyl-6-(2-methylpyrimidin-5-yl)-2-oxoindolin-1-yl)pyrazine-2-carboxamide], half-maximal inhibition in experiment [2] (IC50) required 76.4 nM.
Still for that read-out and setting: for `Cc1ncc(-c2ccc3c(c2)N(c2cncc(C(=O)NC4CC(F)(F)C4)n2)C(=O)C3(C)C)cn1` [Example 40, N-(3,3-Difluorocyclobutyl)-6-(3,3-dimethyl-6-(2-methylpyrimidin-5-yl)-2-oxoindolin-1-yl)pyrazine-2-carboxamide] the value was 323 nM.
Consider `Cc1ncc(-c2ccc3c(c2)N(c2cncc(C(=O)NC4CCC4)n2)C(=O)C3(C)C)cn1` [Example 42, N-Cyclobutyl-6-(3,3-dimethyl-6-(2-methylpyrimidin-5-yl)-2-oxoindolin-1-yl)pyrazine-2-carboxamide], for which half-maximal inhibition in experiment [2] (IC50) required 129 nM.
`Cc1ncc(-c2ccc3c(c2)N(c2cncc(C(=O)NC4COC4)n2)C(=O)C3(C)C)cn1` [Example 43, 6-(3,3-Dimethyl-6-(2-methylpyrimidin-5-yl)-2-oxoindolin-1-yl)-N-(oxetan-3-yl)pyrazine-2-carboxamide] yielded an IC50 in experiment [2] of 319 nM.
Still for that read-out and setting: for `Cc1ncc(-c2ccc3c(c2)N(c2cncc(C(=O)NC(C)(C)C)n2)C(=O)C3(C)C)cn1` [Example 44, N-(tert-Butyl)-6-(3,3-dimethyl-6-(2-methylpyrimidin-5-yl)-2-oxoindolin-1-yl)pyrazine-2-carboxamide] the value was 243 nM.
`CNC(=O)c1nc(N2C(=O)C(C)(C)c3ccc(-c4cnc(C)nc4)cc32)cn1C` [Example 45, 4-(3,3-Dimethyl-6-(2-methylpyrimidin-5-yl)-2-oxoindolin-1-yl)-N,1-dimethyl-1H-imidazole-2-carboxamide] showed an IC50 in experiment [2] of 21 nM.
On the same count and under the same terms, the figure for `Cc1ncc(-c2ccc3c(c2)N(c2cn(C)c(C(=O)N(C)C)n2)C(=O)C3(C)C)cn1` [Example 46, 4-(3,3-Dimethyl-6-(2-methylpyrimidin-5-yl)-2-oxoindolin-1-yl)-N,N,1-trimethyl-1H-imidazole-2-carboxamide] is 46.9 nM.
